This is an account of results in patent US20230167088A1, “1-PYRAZINYLPYRAZOLYL-3-OXYALKYL ACIDS AND THEIR DERIVATIVES, AND THEIR USE FOR CONTROL OF UNDESIRED PLANT GROWTH” (BAYER AKTIENGESELLSCHAFT, priority 2020, published 2023).

The subject of assay [1] is DIGSA. Kind of assay: Herbicidal pre-emergence action 2b (doubly sown, 1280 g/ha). The class given is in vivo, Digitaria sanguinalis. The following applies: doubly sown pots, dosage 1280 g/ha, visual scoring after about 3 weeks. In outline:
(§1)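 Read-out: visual percentage damage relative to untreated controls, scored after roughly 3 weeks in the greenhouse, where 100% means plants died and 0% equals control. Seeds were sown two species per pot in sandy loam and covered before the compounds, formulated as WP or EC with 0.5% additive, were sprayed onto the soil at 600 L/ha.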

The subject of another assay is PHBPU. As to the kind of experiment: Herbicidal pre-emergence action 2a (greenhouse pots, visual scoring). It is filed as in vivo, Pharbitis purpurea. The following applies: dosage 320 g/ha, visual scoring after about 3 weeks vs untreated controls. The text has this: [table] a) Seeds of monocotyledonous and dicotyledonous weed plants and crop plants are placed in plastic or organic plant pots and covered with soil. The compounds of the invention, formulated in the form of wettable powders (WP) or as emulsion concentrates (EC), are then applied onto the surface of the covering soil as aqueous suspension or emulsion with addition of 0.5% additive at a water application rate of 600 1/ha (converted). After the treatment, the pots are placed in a greenhouse and kept under good growth conditions for the trial plants. After about 3 weeks, the effect of the preparations is scored visually in comparison with untreated controls as percentages. For example, 100% activity=the plants have died, 0% activity=like control plants. Tables B1 to B15 below show the effects of selected compounds of the general formula (I) according to Tables 1 and 2 on various harmful plants and an application rate corresponding to 320 g/ha and/or 80 g/ha, which were obtained by the experimental procedure mentioned above.

The test system of assay [2] is ECHCG. Kind of assay: Herbicidal post-emergence action 1b (twin sowing, 1280 g/ha). The following applies: dosage 1280 g/ha, visual rating about 3 weeks after treatment. It is filed as in vivo, Echinochloa crus-galli. In outline:
(§2)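 Sow paired weed species in sandy loam pots and grow in the greenhouse; at the one-leaf stage (2–3 weeks) spray green parts with compound suspension or emulsion containing 0.5% additive at 600 L water/ha; keep about 3 weeks, then score damage visually relative to untreated plants.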

Assay [3] concerns POAAN. As to the kind of experiment: Herbicidal pre-emergence action 2b (doubly sown, 1280 g/ha). It is filed as in vivo, Poa annua. The settings on record: doubly sown pots, dosage 1280 g/ha, visual scoring after about 3 weeks. A digest of the protocol:
as §1

Assay [4] deals with AMARE. Described as above. It is filed as in vivo, Amaranthus retroflexus. The settings on record: doubly sown pots, dosage 1280 g/ha, visual scoring after about 3 weeks. A digest of the protocol: as §1
The test system of assay [5] is POAAN. Kind of assay: Herbicidal post-emergence action 1b (twin sowing, 1280 g/ha). It is filed as in vivo, Poa annua. The settings on record: dosage 1280 g/ha, visual rating about 3 weeks after treatment. In outline:
as §2

For assay [6], the system named is ECHCG. Kind of assay: Herbicidal pre-emergence action 2a (greenhouse pots, visual scoring). The settings on record: dosage 320 g/ha, visual scoring after about 3 weeks. It is filed as in vivo, Echinochloa crus-galli. A digest of the protocol: (§3)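 Pre-emergence soil-surface spray: WP/EC, 0.5% additive, 600 l/ha water, 320 and/or 80 g/ha. Greenhouse ~3 wk. Visual % damage vs untreated (100% = plants dead, 0% = like control).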

The subject of assay [7] is AMARE. The description is as above. It is filed as in vivo, Amaranthus retroflexus. The settings on record: dosage 320 g/ha, visual scoring after about 3 weeks vs untreated controls. In outline: as §3
The subject of another assay is ABUTH. Kind of assay: Herbicidal post-emergence action 1b (twin sowing, 1280 g/ha). It is filed as in vivo, Abutilon theophrasti. The following applies: dosage 1280 g/ha, visual rating about 3 weeks after treatment. As for the experimental part:
[table] b) Seeds of mono- and dicotyledonous weed plants are placed in plastic pots in sandy loam soil (twin sowing with one species each of mono- or dicotyledonous weed plants per pot), covered with soil and cultivated in a greenhouse under controlled growth conditions. 2 to 3 weeks after sowing, the test plants are treated at the one-leaf stage. The compounds of the invention, formulated in the form of wettable powders (WP) or as emulsion concentrates (EC), are applied to the green parts of the plants as aqueous suspension or emulsion with addition of 0.5% additive at a water application rate equivalent to 600 litres per hectare. After the test plants have been kept in the greenhouse under optimum growth conditions for about 3 weeks, the activity of the preparations is rated visually in comparison to untreated controls. For example, 100% activity=the plants have died, 0% activity=like control plants. Tables A16 to A21 below show the effects of selected compounds of the general formula (I) according to Tables 1 and 2 on various harmful plants and at an application rate corresponding to 1280 g/ha, which were obtained by the experimental procedure mentioned above.

The subject of the next assay is VIOTR. Kind of assay: Herbicidal pre-emergence action 2a (greenhouse pots, visual scoring). The settings on record: dosage 320 g/ha, visual scoring after about 3 weeks vs untreated controls. The class given is in vivo, Viola tricolor. A digest of the protocol:
as §3

Assay [8] concerns MATIN. As to the kind of experiment: Herbicidal pre-emergence action 2b (doubly sown, 1280 g/ha). It is filed as in vivo, Matricaria inodora. The following applies: doubly sown pots, dosage 1280 g/ha, visual scoring after about 3 weeks. In outline: as §1
In the next assay the test system is VERPE. Kind of assay: Herbicidal pre-emergence action 2a (greenhouse pots, visual scoring). It is filed as in vivo, Veronica persica. The following applies: dosage 320 g/ha, visual scoring after about 3 weeks vs untreated controls. A digest of the protocol:
as §3

A further assay concerns POLCO. The assay is described as above. The following applies: dosage 320 g/ha, visual scoring after about 3 weeks vs untreated controls. It is filed as in vivo, Polygonum convolvulus. In outline: as §3
Assay [9] relates to ECHCG. Kind of assay: Herbicidal pre-emergence action 2b (doubly sown, 1280 g/ha). The class given is in vivo, Echinochloa crus-galli. The following applies: doubly sown pots, dosage 1280 g/ha, visual scoring after about 3 weeks. In outline: as §1
In the next assay the test system is AVEFA. As to the kind of experiment: Herbicidal pre-emergence action 2a (greenhouse pots, visual scoring). It is filed as in vivo, Avena fatua. The following applies: dosage 320 g/ha, visual scoring after about 3 weeks. In outline:
as §3

In assay [10] the test system is MATIN. The assay is described as above. It is filed as in vivo, Matricaria inodora. The settings on record: dosage 320 g/ha, visual scoring after about 3 weeks vs untreated controls. In outline:
as §3

Assay [11] relates to MATIN. As to the kind of experiment: Herbicidal post-emergence action 1b (twin sowing, 1280 g/ha). The class given is in vivo, Matricaria inodora. The following applies: dosage 1280 g/ha, visual rating about 3 weeks after treatment. In outline:
as §2

The next assay relates to SETVI. As to the kind of experiment: Herbicidal pre-emergence action 2a (greenhouse pots, visual scoring). It is filed as in vivo, Setaria viridis. The settings on record: dosage 320 g/ha, visual scoring after about 3 weeks vs untreated controls. In outline:
as §3

Assay [12] concerns DIGSA. Kind of assay: Herbicidal post-emergence action 1b (twin sowing, 1280 g/ha). It is filed as in vivo, Digitaria sanguinalis. The settings on record: dosage 1280 g/ha, visual rating about 3 weeks after treatment. A digest of the protocol: as §2
Assay [13] relates to STEME. The description is as above. It is filed as in vivo, Stellaria media. The following applies: dosage 1280 g/ha, visual rating about 3 weeks after treatment. In outline:
as §2

In assay [14] the test system is ALOMY. Kind of assay: Herbicidal post-emergence action 1a (greenhouse pots, visual rating). The settings on record: Dosage 80 g/ha; rated visually about 3 weeks after treatment; 100% = plants have died, 0% = like control plants. It is filed as in vivo, Alopecurus myosuroides. A digest of the protocol: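 Weeds and crops sown in sandy loam in greenhouse pots were sprayed post-emergence at the one-leaf stage (2–3 weeks after sowing) with WP or EC formulations plus 0.5% additive at 600 l/ha water, 320 and/or 80 g/ha. About 3 weeks later damage was rated visually against untreated controls (0% = no effect, 100% = dead).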

In assay [15] the test system is STEME. Kind of assay: Herbicidal pre-emergence action 2b (doubly sown, 1280 g/ha). The class given is in vivo, Stellaria media. The following applies: doubly sown pots, dosage 1280 g/ha, visual scoring after about 3 weeks. In outline:
as §1

The subject of assay [16] is ALOMY. Kind of assay: Herbicidal pre-emergence action 2a (greenhouse pots, visual scoring). It is filed as in vivo, Alopecurus myosuroides. The settings on record: dosage 320 g/ha, visual scoring after about 3 weeks. In outline: as §3

Consider `COCCOCCOC(=O)COc1nn(-c2cnccn2)c(-c2ccc(F)nc2)c1Br` [Example I-67], for which the “Pre-emergence action at 1280 g/ha against DIGSA in %” value in the assay with DIGSA [1] is 100%. Besides, in the assay with PHBPU, the “Pre-emergence action against PHBPU in %” value turned out to be 80%. Moreover, the “Post-emergence action at 1280 g/ha against ECHCG in %” value in the assay with ECHCG [2] is listed as 90%. Further, the “Pre-emergence action at 1280 g/ha against POAAN in %” value in the assay on POAAN [3] was 100%. In addition, in the assay on AMARE [4], the “Pre-emergence action at 1280 g/ha against AMARE in %” value is on record as 100%. The “Post-emergence action at 1280 g/ha against POAAN in %” value in the assay on POAAN [5] stood at 100%. In addition, in the assay with ECHCG [6], the “Pre-emergence action against ECHCG in %” value is given as 90%. The “Pre-emergence action against AMARE in %” value in the assay on AMARE [7] worked out at 100%. Also, the “Post-emergence action at 1280 g/ha against ABUTH in %” value in the assay with ABUTH is 90%. Further, the “Pre-emergence action against VIOTR in %” value with VIOTR came to 90%. Also, in the assay with MATIN [8], the “Pre-emergence action at 1280 g/ha against MATIN in %” value was determined as 100%. Moreover, the “Pre-emergence action against VERPE in %” value in the assay on VERPE is given as 90%. In addition, the “Pre-emergence action against POLCO in %” value with POLCO was 90%. The “Pre-emergence action at 1280 g/ha against ECHCG in %” value in the assay with ECHCG [9] worked out at 100%. Besides, in the assay with AVEFA, the “Pre-emergence action against AVEFA in %” value is reported as 80%. Further, the “Pre-emergence action against MATIN in %” value in the assay with MATIN [10] is given as 80%. In the assay with MATIN [11], the “Post-emergence action at 1280 g/ha against MATIN in %” value was 100%. Further, the “Pre-emergence action against SETVI in %” value in the assay on SETVI is on record as 90%. In addition, the “Post-emergence action at 1280 g/ha against DIGSA in %” value in the assay with DIGSA [12] stood at 100%. Besides, the “Post-emergence action at 1280 g/ha against STEME in %” value in the assay on STEME [13] came out at 90%. In addition, the “Post-emergence action against ALOMY in %” value in the assay with ALOMY [14] came to 90%. In addition, in the assay on STEME [15], the “Pre-emergence action at 1280 g/ha against STEME in %” value is listed as 100%. In addition, in the assay with ALOMY [16], the “Pre-emergence action against ALOMY in %” value amounted to 100%.
